Results from patent US9981916B2 (Genentech, Inc., priority 2013, dated 2018).

These molecules were tested against T1, RORc ligand binding domain (Homo sapiens, UniProt P51449) (assay: In vitro RORc ligand binding assay (25-[3H]hydroxycholesterol displacement, filter binding)). Conditions: 6 nM 25-[3H]hydroxycholesterol, 0.6 ug/mL RORc receptor, 3 h at 25° C.
T1 construct: host or cells: E. coli
T1 sequence (P51449 269-508 limits assumed): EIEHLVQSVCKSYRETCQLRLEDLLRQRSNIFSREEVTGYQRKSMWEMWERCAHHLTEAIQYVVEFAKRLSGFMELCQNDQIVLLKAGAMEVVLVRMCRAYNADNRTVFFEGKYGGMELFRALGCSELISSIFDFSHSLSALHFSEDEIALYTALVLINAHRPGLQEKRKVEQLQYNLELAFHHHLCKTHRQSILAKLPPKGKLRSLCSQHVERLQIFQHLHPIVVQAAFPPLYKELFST
Procedure, shortened: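 Compounds in 5% DMSO, either dose-response or screened at 1 and 10 uM, competed with 6 nM 25-[3H]hydroxycholesterol for 0.6 ug/mL RORc over 3 h at 25° C (HEPES pH 7.4, NaCl, MgCl2, DTT, BSA buffer). Bound tracer was filter-harvested and counted; nonspecific binding came from 1 uM 25-hydroxycholesterol.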

Going from `CN(C(=O)CO)[C@@]12CC[C@@H](c3cc(-c4c(F)cccc4F)nnc31)C2(C)C` [Example 313, N-((5R,8R)-3-(2,6-difluorophenyl)-9,9-dimethyl-5,6,7,8-tetrahydro-5,8-methanocinnolin-8-yl)-2-hydroxy-N-methylacetamide] to `CC1(C)[C@H]2CC[C@]1(C)c1nnc(-c3c(F)cccc3F)cc12` [Example 1, (5R,8S)-3-(2,6-Difluorophenyl)-8,9,9-trimethyl-5,6,7,8-tetrahydro-5,8-methanocinnoline], the IC50 falls from 393 nM to 114 nM (3.4-fold).

Compared with `CCN(C[C@@]12CC[C@@H](c3cc(-c4c(F)cccc4F)nnc31)C2(C)C)c1ncccn1` [Example 164, N-(((5R,8S)-3-(2,6-difluorophenyl)-9,9-dimethyl-5,6,7,8-tetrahydro-5,8-methanocinnolin-8-yl)methyl)-N-ethylpyrimidin-2-amine], `CC1(C)[C@H]2CC[C@]1(CN(CCO)c1ncccn1)c1nnc(-c3c(F)cccc3F)cc12` [Example 272, 2-((((5R,8S)-3-(2,6-difluorophenyl)-9,9-dimethyl-5,6,7,8-tetrahydro-5,8-methanocinnolin-8-yl)methyl)(pyrimidin-2-yl)amino)ethanol] is 31-fold higher in IC50: 4 nM for the first, 124 nM for the second.

Compared with `C[C@H]1COC(=O)N1C[C@@]12CC[C@@H](c3cc(-c4c(F)cccc4F)nnc31)C2(C)C` [Example 295, (S)-3-(((5R,8S)-3-(2,6-difluorophenyl)-9,9-dimethyl-5,6,7,8-tetrahydro-5,8-methanocinnolin-8-yl)methyl)-4-methyloxazolidin-2-one], `CC1(C)[C@H]2CC[C@]1(CN1CC(C#N)C1)c1nnc(-c3c(F)cccc3F)cc12` [Example 326, 1-(((5R,8S)-3-(2,6-difluorophenyl)-9,9-dimethyl-5,6,7,8-tetrahydro-5,8-methanocinnolin-8-yl)methyl)azetidine-3-carbonitrile] is 1.7-fold higher in IC50: 1110 nM for the first, 1920 nM for the second.

`Cc1nnc(C[C@@]23CC[C@@H](c4cc(-c5c(F)cccc5F)nnc42)C3(C)C)o1` [Example 65, (5R,8R)-3-(2,6-difluorophenyl)-9,9-dimethyl-8-[(5-methyl-1,3,4-oxadiazol-2-yl)methyl]-5,6,7,8-tetrahydro-5,8-methanocinnoline] and `Cc1noc(C[C@@]23CC[C@@H](c4cc(-c5c(F)cccc5F)nnc42)C3(C)C)n1` [Example 75, (5R,8R)-3-(2,6-difluorophenyl)-9,9-dimethyl-8-[(3-methyl-1,2,4-oxadiazol-5-yl)methyl]-5,6,7,8-tetrahydro-5,8-methanocinnoline] are within 1.5-fold of each other in IC50: 131 nM for the first, 89 nM for the second.

Compared with `CC1(C)[C@@H]2CC[C@@]1(C(=O)N1C3CCC1CC3)c1nnc(-c3c(F)cccc3F)cc12` [Example 247, 7-azabicyclo[2.2.1]heptan-7-yl((5S,8S)-3-(2,6-difluorophenyl)-9,9-dimethyl-5,6,7,8-tetrahydro-5,8-methanocinnolin-8-yl)methanone], `CC1(C)[C@@H]2CC[C@@]1(C(=O)N1CCC3CC31)c1nnc(-c3c(F)cccc3F)cc12` (stereo partly drawn) [Example 223, 2-azabicyclo[3.1.0]hexan-2-yl((5S,8S)-3-(2,6-difluorophenyl)-9,9-dimethyl-5,6,7,8-tetrahydro-5,8-methanocinnolin-8-yl)methanone] is 5.7-fold lower in IC50: 1110 nM for the first, 196 nM for the second. The second is the more potent here.

First: Cc1nn(C)/c(=N\[C@@]23CC[C@@H](c4cc(-c5ccccc5F)nnc42)C3(C)C)o1 [Example 229, (5R,8R,E)-N-(3,5-dimethyl-1,3,4-oxadiazol-2(3H)-ylidene)-3-(2-fluorophenyl)-9,9-dimethyl-5,6,7,8-tetrahydro-5,8-methanocinnolin-8-amine]
Second: COC[C@@]12CC[C@@H](c3cc(-c4ccccc4F)nnc31)C2(C)C [Example 28, (5R,8R)-3-(2-fluorophenyl)-8-(methoxymethyl)-9,9-dimethyl-5,6,7,8-tetrahydro-5,8-methanocinnoline]
The IC50 of the first is 7.3-fold higher: 1530 nM for the first, 210 nM for the second.

Going from `CC(C)OC[C@]12CC[C@H](c3cc(-c4ccccc4F)nnc31)C2(C)C` [Example 38, (5S,8S)-3-(2-fluorophenyl)-9,9-dimethyl-8-[(propan-2-yloxy)methyl]-5,6,7,8-tetrahydro-5,8-methanocinnoline] to `COCC(=O)N[C@@]12CC[C@@H](c3cc(-c4ccccc4F)nnc31)C2(C)C` [Example 83, N-[(5R,8R)-3-(2-fluorophenyl)-9,9-dimethyl-6,7-dihydro-5,8-methanocinnolin-8(5H)-yl]-2-methoxyacetamide], the IC50 rises from 281 nM to 1170 nM (4.2-fold).

Going from `CC1(C)[C@H]2CC[C@]1(CN(CC(N)=O)CC(F)F)c1nnc(-c3c(F)cccc3F)cc12` [Example 305, 2-((2,2-difluoroethyl)(((5R,8S)-3-(2,6-difluorophenyl)-9,9-dimethyl-5,6,7,8-tetrahydro-5,8-methanocinnolin-8-yl)methyl)amino) acetamide] to `CC(=O)OC[C@]12CC[C@H](c3cc(-c4c(F)cccc4Cl)nnc31)C2(C)C` [Example 22, [(5S,8S)-3-(2-chloro-6-fluorophenyl)-9,9-dimethyl-6,7-dihydro-5,8-methanocinnolin-8(5H)-yl]methyl acetate], the IC50 falls from 437 nM to 15 nM (29-fold).

Going from `CC1(C)[C@@H]2CC[C@@]1(C(=O)N1CCC(C(F)(F)F)C1)c1nnc(-c3c(F)cccc3F)cc12` (stereo partly drawn) [Example 208, ((5S,8S)-3-(2,6-difluorophenyl)-9,9-dimethyl-5,6,7,8-tetrahydro-5,8-methanocinnolin-8-yl)(3-(trifluoromethyl)pyrrolidin-1-yl)methanone] to `COC(=O)C1CCN(C(=O)[C@]23CC[C@H](c4cc(-c5c(F)cccc5F)nnc42)C3(C)C)C1` (stereo partly drawn) [Example 213, methyl 1-((5S,8S)-3-(2,6-difluorophenyl)-9,9-dimethyl-5,6,7,8-tetrahydro-5,8-methanocinnoline-8-carbonyl)pyrrolidine-3-carboxylate], the IC50 falls from 142 nM to 32 nM (4.4-fold). The second is the more potent here.

Going from `COCC1CN(C(=O)[C@]23CC[C@H](c4cc(-c5c(F)cccc5F)nnc42)C3(C)C)C1` [Example 140, ((5S,8S)-3-(2,6-difluorophenyl)-9,9-dimethyl-5,6,7,8-tetrahydro-5,8-methanocinnolin-8-yl)(3-(methoxymethyl)azetidin-1-yl)methanone] to `CC1(C)[C@@H]2CC[C@@]1(C(=O)N1CC(CC#N)C1)c1nnc(-c3c(F)cccc3F)cc12` [Example 264, 2-(1-((5S,8S)-3-(2,6-difluorophenyl)-9,9-dimethyl-5,6,7,8-tetrahydro-5,8-methanocinnoline-8-carbonyl)azetidin-3-yl)acetonitrile], the IC50 rises from 19 nM to 307 nM (16-fold).

`Cc1nc([C@@]23CC[C@@H](c4cc(-c5c(F)cccc5F)nnc42)C3(C)C)no1` [Example 80, (5R,8R)-3-(2,6-difluorophenyl)-9,9-dimethyl-8-(5-methyl-1,2,4-oxadiazol-3-yl)-5,6,7,8-tetrahydro-5,8-methanocinnoline] and `Cc1ocnc1[C@]12CC[C@H](c3cc(-c4c(F)cccc4F)nnc31)C2(C)C` [Example 228, 4-((5S,8R)-3-(2,6-difluorophenyl)-9,9-dimethyl-5,6,7,8-tetrahydro-5,8-methanocinnolin-8-yl)-5-methyloxazole] are within 1.5-fold of each other in IC50: 136 nM for the first, 137 nM for the second.

`CC1(C)[C@H]2CC[C@]1(c1cnccn1)c1nnc(-c3c(F)cccc3F)cc12` [Example 161] and `Cn1nc([C@@]23CC[C@@H](c4cc(-c5c(F)cccc5F)nnc42)C3(C)C)oc1=O` [Example 226, 5-((5R,8R)-3-(2,6-difluorophenyl)-9,9-dimethyl-5,6,7,8-tetrahydro-5,8-methanocinnolin-8-yl)-3-methyl-1,3,4-oxadiazol-2(3H)-one] are within 1.5-fold of each other in IC50: 90 nM for the first, 124 nM for the second.

Going from `CC(C)OC1CN(C(=O)[C@]23CC[C@H](c4cc(-c5c(F)cccc5F)nnc42)C3(C)C)C1` [Example 235, ((5S,8S)-3-(2,6-difluorophenyl)-9,9-dimethyl-5,6,7,8-tetrahydro-5,8-methanocinnolin-8-yl)(3-isopropoxyazetidin-1-yl)methanone] to `CC1(C)CCN(C(=O)[C@]23CC[C@H](c4cc(-c5c(F)cccc5F)nnc42)C3(C)C)C1` [Example 237, ((5S,8S)-3-(2,6-difluorophenyl)-9,9-dimethyl-5,6,7,8-tetrahydro-5,8-methanocinnolin-8-yl)(3,3-dimethylpyrrolidin-1-yl)methanone], the IC50 falls from 844 nM to 498 nM (1.7-fold).

Going from `CC1(C)[C@H]2CC[C@]1(C(=O)N1CC(c3cc[nH]n3)C1)c1nnc(-c3ccccc3F)cc12` [Example 182, (3-(1H-pyrazol-3-yl)azetidin-1-yl)((5R,8R)-3-(2-fluorophenyl)-9,9-dimethyl-5,6,7,8-tetrahydro-5,8-methanocinnolin-8-yl)methanone] to `CC1(C)[C@H]2CC[C@]1(NC(=O)CO)c1nnc(-c3ccccc3F)cc12` [Example 88, N-[(5R,8R)-3-(2-fluorophenyl)-9,9-dimethyl-6,7-dihydro-5,8-methanocinnolin-8(5H)-yl]-2-hydroxyacetamide], the IC50 falls from 3000 nM to 1440 nM (2.1-fold). The second is the more potent here.

First: Cc1noc(NC(=O)[C@]23CC[C@H](c4cc(-c5c(F)cccc5F)nnc42)C3(C)C)n1 [Example 85, (5S,8S)-3-(2,6-difluorophenyl)-9,9-dimethyl-N-(3-methyl-1,2,4-oxadiazol-5-yl)-6,7-dihydro-5,8-methanocinnoline-8(5H)-carboxamide]
Second: CC1(C)[C@@H]2CC[C@@]1(COCc1ccc(C(N)=O)cc1)c1nnc(-c3ccccc3F)cc12 [Example 72, 4-({[(5S,8S)-3-(2-fluorophenyl)-9,9-dimethyl-6,7-dihydro-5,8-methanocinnolin-8(5H)-yl]methoxy}methyl) benzamide]
The IC50 of the first is 36-fold higher: 5650 nM for the first, 158 nM for the second. The second is the more potent here.
